Converted amounts (≈) assume the structure as drawn. Blank lines part the entries; values can stand above or below the compound they belong to.
What was measured:
[1] = biological target: T1, porcine pancreatic lipase (PPL) (Sus scrofa, UniProt P00591); experiment: In vitro porcine pancreatic lipase inhibition assay (p-NPB substrate); assay type: biochemical
T1 sequence (P00591 1-450): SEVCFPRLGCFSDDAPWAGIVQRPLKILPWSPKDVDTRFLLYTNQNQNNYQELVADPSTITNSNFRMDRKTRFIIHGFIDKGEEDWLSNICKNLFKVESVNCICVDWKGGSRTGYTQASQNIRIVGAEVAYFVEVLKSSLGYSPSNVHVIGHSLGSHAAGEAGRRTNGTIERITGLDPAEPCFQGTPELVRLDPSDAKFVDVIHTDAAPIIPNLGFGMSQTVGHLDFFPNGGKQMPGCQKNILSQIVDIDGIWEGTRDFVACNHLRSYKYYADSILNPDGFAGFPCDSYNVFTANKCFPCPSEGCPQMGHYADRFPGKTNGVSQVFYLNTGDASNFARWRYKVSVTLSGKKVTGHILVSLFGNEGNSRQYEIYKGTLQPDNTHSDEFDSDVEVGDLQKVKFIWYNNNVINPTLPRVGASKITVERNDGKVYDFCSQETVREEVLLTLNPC
Protocol: For lipase inhibition tests of each compound, porcine pancreatic lipase was used. p-Nitrophenyl butyrate (p-NPB) was used as the substrate. First, 5 μL of the lipase solution (40 U/mL) in Tris–HCl buffer (100 mM Tris–HCl, 5 mM CaCl2; pH 7.0) was added to a 96-well microtiter plate. Each compound in 1 μL of DMSO and 184 μL of Tris–HCl buffer were added and mixed with the enzyme buffer to start the reaction. After incubation at 37 °C for 15 min, 10 μL of the substrate solution (10 mM p-NPB in dimethyl formamide) was added. The enzymatic reaction was carried out for 15 min at 37 °C. The hydrolysis of p-NPB to p-nitrophenol was monitored at 400 nm using a spectrophotometer.

[2] = tested on: rabbit platelet aggregation induced by collagen; experiment: Rabbit platelet aggregation induced by collagen; assay type: cell-based; conditions: collagen 4 μg/mL; for IC50: Oryctolagus cuniculus, Platelet, read-out: IC50 against rabbit platelet aggregation induced by collagen
Protocol: (§1) Compounds 1–15 and 1a were also evaluated for their inhibitory activity against rabbit platelet aggregation induced by thrombin (1 U/mL), platelet-activating factor (PAF, 0.4 μg/mL), arachidonate (AA, 0.5 mM), or collagen (4 μg/mL).
(§2) The inhibitory effects of the compounds against rabbit platelet aggregation induced by thrombin (1 U/mL), PAF (0.4 μg/mL), AA (0.5 mM), or collagen (4 μg/mL) were evaluated according to published methods.

[3] = tested on: rabbit platelet aggregation induced by arachidonate (AA); experiment: Rabbit platelet aggregation induced by arachidonate (AA); assay type: cell-based; conditions: Oryctolagus cuniculus, AA 0.5 mM
Protocol: as §1, §2

Compound: 7-oxo-β-sitosterol 3-O-β-D-glucopyranoside [Compound 4]
PPL inhibition ([1]; at a concentration of 100 μg/mL): 12 ± 2%

Compound: Cc1cc(OC2OC(COC(=O)C=Cc3ccc(O)cc3)C(O)C(O)C2O)cc(=O)o1 (centres unmarked) [Compound 1, cuscutaroside A]
IC50 [2]: 291 ± 47.9 µg/mL (≈ 671 µM)

Compound: CC(=O)Oc1ccc(/C=C/C(=O)OC[C@H]2O[C@@H](Oc3cc(C)oc(=O)c3)[C@H](OC(C)=O)[C@@H](OC(C)=O)[C@@H]2OC(C)=O)cc1 [Compound 1a]
IC50 [2]: 63.8 ± 4.4 µg/mL (≈ 106 µM) | IC50 ([3]; read-out: IC50 against rabbit platelet aggregation induced by AA): 72.6 ± 10.5 µg/mL (≈ 120 µM)

Further lines, with some results ahead:

IC50 ([1]; porcine pancreatic lipase, p-NPB substrate, read-out: PPL inhibitory activity IC50 (converted)): 111 µM
Compound: CCC(CCC(C)C1CCC2C3C(OC)C=C4CC(OC5OC(CO)C(O)C(O)C5O)CCC4(C)C3CCC12C)C(C)C (stereo not drawn) [Compound 3, 7β-methoxy-β-sitosterol 3-O-β-glucopyranoside]

IC50 [2]: 33.3 ± 1.3 µg/mL (≈ 185 µM)
Compound: CC(=O)Oc1ccccc1C(=O)O [aspirin, reference compound]
inhibition at 40 µg/mL ([3]; at 40 μg/mL): 88.1 ± 1.1%

IC50 against rabbit platelet aggregation induced by collagen [2]: 180.5 ± 6.7 µg/mL
Compound: scrophenoside B [Compound 8]
